These results are taken from patent publication US7074825B2, “Composition and method for treating cancer” (priority 2002, dated 2006).

Where “and” joins values, the source holds several entries; their conditions need not be identical. Equal entries are not always repeated. Where two headings read alike, the source gives them in different places.

The test system of experiment [1] is Human DU145 prostate carcinoma cells. The experiment in a line: DU145 cell proliferation, CellTiter 96, 72 h exposure. Particulars: for Growth (average percent cell survival relative to the control group) / Absorbance (net absorbance at 490 nm, net growth after 72 h) / Growth (average percent cell survival relative to the control group after 72 h exposure period): DU145; for Growth (average percent cell survival relative to the control group after 72 h exposure period): lovastatin […], alone or all three together; for IC50: DU145 cells, estimated, read-out: IC50 (suppression of proliferation). The format is cell-based. How it is done:
(§1) Seeding density was determined in the following pilot test. […] Incubation continued for an additional 48 h.
(§2) Incubation continued for additional 72 h.

Experiment [2] concerns Human PC-3 prostate adenocarcinoma cells. The experiment in a line: PC-3 cell proliferation, CellTiter 96, 72 h exposure. Particulars: for Growth (average percent cell survival relative to the control group): PC3; for IC50: PC-3 cells, estimated, read-out: IC50 (suppression of proliferation); for Absorbance (net absorbance at 490 nm, net growth after 72 h): PC-3. It counts as cell-based. The procedure: as §1, §2

In experiment [3] the test system is B16 melanoma cells. The experiment in a line: B16 melanoma cell proliferation (cell count / CellTiter 96). Particulars: for Observed Growth (empirical percentage survival): 40 hour exposure; for Growth (average percent cell survival relative to the control group after 72 h exposure period): geranyl anthranilate 30 μM, alone or all three together.
Method: B16 melanoma cells were grown in monolayer culture (35×10 mm flasks) in 3 ml RPMI 1640 medium supplemented with 10% fetal bovine serum (FBS) and 80 mg gentamicin/L. The cultures, seeded with 3.3×10^4 cells/mL, were incubated for 24 h at 37° C. in a humidified atmosphere of 5% CO2. The medium was decanted and replaced with fresh medium containing the test agents. Tocotrienol, perillyl alcohol, and geranyl- or farnesyl-hydroquinone ethers were dissolved in ethanol; and lovastatin and genistein were dissolved in dimethyl sulfoxide, DMSO. The incubations were continued for an additional 48 h. All cultures contained 1 ml/L each of ethanol and DMSO. The medium and detached cells were decanted, the monolayer was washed twice with Hanks' Balanced Salt Solution (HBSS) and then incubated with a trypsin-EDTA solution at 37° C. for 2 min. Trypsin was inactivated by suspending the cells in medium containing 10% FBS. The trypsinized cells were pelleted at 250 xg and resuspended in HBSS. Viable cells, cells that excluded 0.4% trypan blue were counted with a hemocytometer; 24-h cell counts were deducted from final cell counts to provide an estimate of the net increase in cell number.
Measurement of B16 cell proliferation was confirmed by using CellTiter 96, Aqueous One Solution (Promega). Seeding density was determined in the following pilot test. B16 cells were maintained in monolayer culture (96-well tissue culture plate) in 0.1 mL of the medium described above. Cultures, seeded in escalating densities (0-8000 cells/well with a 500-cell interval), were incubated for 72 h at 37° C. in a humidified atmosphere of 5% CO2. At 24 h the medium was decanted from each well and replaced with 0.1 mL fresh medium. The 72-h cell populations were determined by adding 20 μl of CellTiter 96, Aqueous One Solution to each well; the plate was held in dark at 37° C. for 2 h and then read at 490 nm with a SPECTRAmax, 190 multi-plate reader with SOFTmax, PRO version 3.0 (Molecular Devices). Cell survival data were assessed as absorbance versus cell seeding density. The absorbance has a linear correlation with cell seeding density up to 2000 B16 cells/well. The midpoint of cell inoculation density, 1000 cells/well, was chosen for B16 cell proliferation assay. This procedure of determining seeding density also applies to all other cell lines in which the CellTiter 96, Aqueous One Solution was used for proliferation assay. In the proliferation assay, B16cells were incubated in 96-well plates for 24 h. The medium was decanted from each well and replaced with 0.1 mL fresh medium containing the test agents. Incubation continued for an additional 48 h. Cell populations of all wells were determined according to CellTiter 96 procedure as described above. Cell proliferation represents the net absorbance, the difference in absorbance between final and 24-h measurements.
In experiment [4] the test system is B16 cancer cell cultures. The experiment in a line: Cell phase distribution by flow cytometry (propidium iodine), B16. It counts as cell-based. Particulars: genistein 5 μM, lovastatin 0.5 μM, geranyl anthranilate 30 μM, alone or all three together; for G2 phase cells: control 12.7%; for S phase cells: control 22.5%; for G1 phase cells: control 64.9%. The text has this:
(§3) Subsequent to the treatment of the cancer cells with these HGM-CoA reductase inhibitors, the cells were fixed in ethanol, treated with RNase and stained with propidium iodine. Fluorescent measurements were then made via a flow cytometer using a laser. A double discriminator was used as the primary gate to eliminate cell aggregates. The distribution profiles associated with the various phases (G1, S) were then obtained through the use of least squares fits of the frequency emission spectra.
In general terms: In flow cytometry, cells or beads pass a laser one at a time.

Experiment [5] relates to DU145 cancer cell cultures. The experiment in a line: Cell phase distribution by flow cytometry (propidium iodine), DU145. The format is cell-based, Human. Particulars: genistein 10 μM, lovastatin […], γ-tocotrienol 5 μM, alone or all three together; for G2 phase cells: control 11.6%; for G1 phase cells: control 65.4%; for S phase cells: control […].
Text: as §3

Experiment [6] concerns Human LNCaP prostate carcinoma cells. The experiment in a line: LNCaP cell proliferation, CellTiter 96, 72 h exposure. It counts as cell-based. How it is done: as §1, §2
[7] abbreviates: genistein 10 μM, γ-tocotrienol 5 μM.
Where [8] appears, read: genistein 5 μM, lovastatin 0.5 μM.
[9] abbreviates: perillyl alcohol 800 μM, negative = cell killing.

Take `CC(C)=CCCC(C)=CCCC(C)=CCO` [Farnesol, farnesol]: the “Growth (average percent cell survival relative to the control group)” value was 38% in experiment [1] (farnesol 50 μM), 79 ± 11% in experiment [1] (farnesol 100 μM), 53 ± 5% in experiment [2] (farnesol 50 μM) and 93 ± 7% in experiment [2] (farnesol 100 μM). In addition, the figures for the “Observed Growth (empirical percentage survival)” value in experiment [3] (farnesol 12.5 μM) and in experiment [3] (farnesol 25 μM) were 84% and 54%, respectively.
Take `C/C=C(\C)C(=O)OCC=C(C)CCC=C(C)CCC=C(C)C` [Farnesyl Tiglate, farnesyl tiglate]: the “Growth (average percent cell survival relative to the control group)” value in experiment [3] (farnesyl tiglate 25 μM) is recorded as 70%; in experiment [3] (farnesyl tiglate 50 μM) it was 49%.
Regarding `O=c1c(-c2ccc(O)cc2)coc2cc(O)cc(O)c12` [Genistein, genistein], the “Absorbance (net absorbance at 490 nm, net growth after 72 h)” value (“Absorbance” for short) is on record as 0.53 in experiment [1] (genistein 10 μM); 0.34 in experiment [1] (genistein 20 μM); 0.20 in experiment [1] (genistein 40 μM); 0.43 in experiment [2] (genistein 10 μM); 0.39 in experiment [2] (genistein 20 μM); 0.32 in experiment [2] (genistein 40 μM). Also, the “Growth (average percent cell survival relative to the control group)” value in experiment [1] (genistein 10 μM) was 100% and 93%; in experiment [1] (genistein 20 μM), 97%; in experiment [1] (genistein 40 μM) it was 38 ± 10%; in experiment [2] (genistein 10 μM), 121 ± 3%; in experiment [2] (genistein 20 μM) it was 87% and 95 ± 4%; in experiment [2] (genistein 40 μM), 78% and 74 ± 11% and 84 ± 2%. In addition, the “Growth (average percent cell survival relative to the control group)” value in experiment [6] (genistein 10 μM) is 100%; in experiment [6] (genistein 20 μM), 70% and 99%; in experiment [3] (genistein 5 μM), 83%. Moreover, the figures for the “Growth (average percent cell survival relative to the control group after 72 h exposure period)” value in experiment [1] (setting [7]) and in experiment [3] (setting [8]) were 100% and 73%, respectively. Besides, the IC50 in experiment [1] (Homo sapiens, DU-145) is 30 µM; in experiment [2] (Homo sapiens), 70 ± 17 µM. Moreover, the values for the G2 phase cells in experiment [4] and in experiment [5] were 10.8% and 15.8%, respectively. Further, the results for the S phase cells in experiment [4] and in experiment [5] were 21.7% and 19.3%, respectively. Moreover, the G1 phase cells in experiment [4] turned out to be 67.6%; in experiment [5], 64.9%. In experiment [3] (genistein 5.0 μM), the “Observed Growth (empirical percentage survival)” value came out at 63%.
In experiment [4], `CC(C)=CCC/C(C)=C/COC(=O)c1ccccc1N` [Geranyl Anthranilate, geranyl anthranilate] gave a G2 phase cells of 9.8%, a S phase cells of 22.9% and a G1 phase cells of 67.3%. Also, in experiment [3] (setting [8]), the “Growth (average percent cell survival relative to the control group after 72 h exposure period)” value was 81%.
For the compound `CC[C@H](C)C(=O)O[C@H]1C[C@@H](C)C=C2C=C[C@H](C)[C@H](CC[C@@H]3C[C@@H](O)CC(=O)O3)[C@H]21` [Lovastatin, [1S-[1α(R*),3α,7β,8β(2S*,4S*), 8a.β.]]-2-methylbutanoic acid 1,2,3,7,8,8a-hexahydro-3,7-dimethyl-8-[2-(tetrahydro-4-hydroxy-6-oxo-2H-pyran-2-yl)ethyl]-1-naphthalenyl ester, reference compound], the “Growth (average percent cell survival relative to the control group after 72 h exposure period)” value in experiment [1] (setting [7]) is given as 100%; in experiment [3] (setting [8]), 71%. Besides, the “Growth (average percent cell survival relative to the control group)” value in experiment [1] (lovastatin 3 μM) is 100%; in experiment [1] (lovastatin 3.0 μM), 100%; in experiment [2] (lovastatin 0.75 μM) it was 87 ± 3%; in experiment [6] (lovastatin 3 μM), 100%; in experiment [6] (lovastatin 3.0 μM), 100%; in experiment [3] (lovastatin 0.5 μM), 100%. The results for the “Growth (average percent cell survival relative to the control group)” value in experiment [3] (lovastatin 1.0 μM) and in experiment [3] (lovastatin 3.0 μM) were 83% and 42%, respectively. The “Absorbance” value is 0.37 in experiment [1] (lovastatin 4 μM); 0.30 in experiment [1] (lovastatin 8 μM); 0.18 in experiment [1] (lovastatin 16 μM); 0.15 in experiment [1] (lovastatin 32 μM); 0.32 in experiment [2] (lovastatin 1 μM); 0.10 in experiment [2] (lovastatin 2 μM). Further, the “Absorbance” value in experiment [2] (lovastatin 4 μM, negative = cell killing) was −0.02. Moreover, the IC50 in experiment [1] (Homo sapiens, DU-145) was 18 ± 2 µM; in experiment [2] (Homo sapiens) it was 2.2 ± 0.5 µM. Besides, the G2 phase cells in experiment [4] was determined as 9.3%; in experiment [5], 15.7%. The figures for the S phase cells in experiment [4] and in experiment [5] were 22.2% and 22.3%, respectively. Also, the G1 phase cells in experiment [4] is reported as 68.5%; in experiment [5] it was 62.0%.
Regarding `C=C(C)[C@@H]1CC=C(CO)CC1` [Perillyl Alcohol, perillyl alcohol], the “Absorbance” value in experiment [1] (perillyl alcohol 100 μM) is recorded as 0.46; in experiment [1] (perillyl alcohol 200 μM), 0.40; in experiment [1] (perillyl alcohol 400 μM) it was 0.18; in experiment [1] (setting [9]), −0.06; in experiment [1] (perillyl alcohol 1600 μM, negative = cell killing), −0.05; in experiment [2] (perillyl alcohol 200 μM), 0.34. Moreover, the “Absorbance” value in experiment [2] (perillyl alcohol 400 μM) is listed as 0.09; in experiment [2] (perillyl alcohol 600 μM), 0.06; in experiment [2] (setting [9]), −0.05. Also, the IC50 in experiment [1] (Homo sapiens, DU-145) is 420 µM; in experiment [2] (Homo sapiens), 480 µM.
Regarding `CC(=O)O[C@H]1C(=O)[C@@]2(C)[C@H]([C@H](OC(=O)c3ccccc3)[C@]3(O)C[C@H](OC(=O)[C@H](O)[C@@H](NC(=O)c4ccccc4)c4ccccc4)C(C)=C1C3(C)C)[C@]1(OC(C)=O)CO[C@@H]1C[C@@H]2O` [Taxol, taxol, reference compound], the “Growth (average percent cell survival relative to the control group)” value in experiment [2] (taxol 2 nM) is 97 ± 5%; in experiment [2] (taxol 5 nM), 71 ± 1%.
As to γ-tocotrienol, in experiment [1] (setting [7]), the “Growth (average percent cell survival relative to the control group after 72 h exposure period)” value is reported as 87%. Also, the “Absorbance” value in experiment [1] (γ-tocotrienol 5 μM) is reported as 0.39; in experiment [1] (γ-tocotrienol 10 μM), 0.40; in experiment [1] (γ-tocotrienol 20 μM) it was 0.33; in experiment [1] (γ-tocotrienol 30 μM), 0.20; in experiment [1] (γ-tocotrienol 40 μM, negative = cell killing), −0.05; in experiment [2] (γ-tocotrienol 40 μM) it was 0.36. For the same compound, the “Absorbance” value in experiment [2] (γ-tocotrienol 80 μM) was determined as 0.02. In addition, the “Growth (average percent cell survival relative to the control group)” value is on record as 87% in experiment [1] (γ-tocotrienol 5 μM); 68% in experiment [1] (γ-tocotrienol 10 μM); 70% in experiment [1] (γ-tocotrienol 20 μM); 100% in experiment [2] (γ-tocotrienol 20 μM); 100% in experiment [6] (γ-tocotrienol 5 μM); 76% in experiment [6] (γ-tocotrienol 10 μM). Moreover, the “Growth (average percent cell survival relative to the control group)” value is on record as 70% in experiment [6] (γ-tocotrienol 20 μM) and 73% in experiment [3] (γ-tocotrienol 5 μM). Moreover, the IC50 in experiment [1] was 20 ± 2 µM; in experiment [2] it was 39 µM. The same compound showed a G2 phase cells in experiment [5] of 12.2%. The G1 phase cells in experiment [5] was 66.7%. The same compound showed a S phase cells in experiment [5] of 21.1%.
